Tests used:
[1] = test system: caspase-3/7 in MDA-MB-231 cells; test: Caspase-3/7 activation analysis; format: cell-based, human; settings: MDA-MB-231, 4 h treatment; Uk14 5 μM, Ur11 10 μM, ABT-737 10 μM
Method: Cells (MDA-MB-231) were plated 10 000 per well on 96-well plates in medium containing 10% fetal bovine serum and incubated with serial dilution of peptides and ABT-737 for 4 h. Then caspase-3/7 activation was measured by addition of the caspase-Glo 3/7 chemiluminescence reagent in accordance with the manufacturer’s protocol (Promega, Madison, WI, USA).

MDA-MB-231 = test: Cell viability with or without caspase inhibitor Z-VAD-FMK; format: cell-based, human; settings: MDA-MB-231, 24 h treatment, with or without Z-VAD-FMK
Method: 100 μl of 4×10^4/ml cell suspension (MDA-MB-231, MCF-7, HeLa, SK-OV-3) was placed in each well of the 96-well culture plate and allowed to grow in dulbecco's modified eagle medium or Leibovitz medium (L-15) supplemented with 10% fetal bovine serum overnight. The cells were incubated with serial dilution of compounds at 310 K in 5% fetal bovine serum containing media for 24 h supplied with 5% CO2. At the end of the compounds exposure, 20 μl of 3-(4,5-dimethyl-2-thiazolyl)-2,5-diphenyl-2-H-tetrazolium bromide reagent was added and incubated at 310 K for 4 h. The absorbance of formazan product was measured at 490 nm by a microplate reader (PerkinElmer, Waltham, MA, USA). Cells without peptide were treated as control. *P<0.05, **P<0.01, ***P<0.001 compared with vehicle-treated cells. In Z-VAD-FMK assays, *P<0.05, **P<0.01, ***P<0.001 compared with cells without treatment of Z-VAD-FMK.

`CN(C)CC[C@H](CSc1ccccc1)Nc1ccc(S(=O)(=O)NC(=O)c2ccc(N3CCN(Cc4ccccc4-c4ccc(Cl)cc4)CC3)cc2)cc1[N+](=O)[O-]` [ABT-737, reference compound] was tested, and the caspase-3/7 activation [1] was “observed” and the “effect of caspase inhibitor Z-VAD-FMK on cytotoxic effect” value (MDA-MB-231) was “did have an inhibitory effect”.

From publication PMC5629628, “The development of activatable lytic peptides for targeting triple negative breast cancer” (Cell Death Discovery, 2017)
